The record followed here is patent US20240025884A1 (Dong-A ST Co., Ltd., priority 2022, published 2024).

What is called IC50 is the concentration needed to halve the response being measured.

Sequence of GCN2 (Q9P2K8 whole entry): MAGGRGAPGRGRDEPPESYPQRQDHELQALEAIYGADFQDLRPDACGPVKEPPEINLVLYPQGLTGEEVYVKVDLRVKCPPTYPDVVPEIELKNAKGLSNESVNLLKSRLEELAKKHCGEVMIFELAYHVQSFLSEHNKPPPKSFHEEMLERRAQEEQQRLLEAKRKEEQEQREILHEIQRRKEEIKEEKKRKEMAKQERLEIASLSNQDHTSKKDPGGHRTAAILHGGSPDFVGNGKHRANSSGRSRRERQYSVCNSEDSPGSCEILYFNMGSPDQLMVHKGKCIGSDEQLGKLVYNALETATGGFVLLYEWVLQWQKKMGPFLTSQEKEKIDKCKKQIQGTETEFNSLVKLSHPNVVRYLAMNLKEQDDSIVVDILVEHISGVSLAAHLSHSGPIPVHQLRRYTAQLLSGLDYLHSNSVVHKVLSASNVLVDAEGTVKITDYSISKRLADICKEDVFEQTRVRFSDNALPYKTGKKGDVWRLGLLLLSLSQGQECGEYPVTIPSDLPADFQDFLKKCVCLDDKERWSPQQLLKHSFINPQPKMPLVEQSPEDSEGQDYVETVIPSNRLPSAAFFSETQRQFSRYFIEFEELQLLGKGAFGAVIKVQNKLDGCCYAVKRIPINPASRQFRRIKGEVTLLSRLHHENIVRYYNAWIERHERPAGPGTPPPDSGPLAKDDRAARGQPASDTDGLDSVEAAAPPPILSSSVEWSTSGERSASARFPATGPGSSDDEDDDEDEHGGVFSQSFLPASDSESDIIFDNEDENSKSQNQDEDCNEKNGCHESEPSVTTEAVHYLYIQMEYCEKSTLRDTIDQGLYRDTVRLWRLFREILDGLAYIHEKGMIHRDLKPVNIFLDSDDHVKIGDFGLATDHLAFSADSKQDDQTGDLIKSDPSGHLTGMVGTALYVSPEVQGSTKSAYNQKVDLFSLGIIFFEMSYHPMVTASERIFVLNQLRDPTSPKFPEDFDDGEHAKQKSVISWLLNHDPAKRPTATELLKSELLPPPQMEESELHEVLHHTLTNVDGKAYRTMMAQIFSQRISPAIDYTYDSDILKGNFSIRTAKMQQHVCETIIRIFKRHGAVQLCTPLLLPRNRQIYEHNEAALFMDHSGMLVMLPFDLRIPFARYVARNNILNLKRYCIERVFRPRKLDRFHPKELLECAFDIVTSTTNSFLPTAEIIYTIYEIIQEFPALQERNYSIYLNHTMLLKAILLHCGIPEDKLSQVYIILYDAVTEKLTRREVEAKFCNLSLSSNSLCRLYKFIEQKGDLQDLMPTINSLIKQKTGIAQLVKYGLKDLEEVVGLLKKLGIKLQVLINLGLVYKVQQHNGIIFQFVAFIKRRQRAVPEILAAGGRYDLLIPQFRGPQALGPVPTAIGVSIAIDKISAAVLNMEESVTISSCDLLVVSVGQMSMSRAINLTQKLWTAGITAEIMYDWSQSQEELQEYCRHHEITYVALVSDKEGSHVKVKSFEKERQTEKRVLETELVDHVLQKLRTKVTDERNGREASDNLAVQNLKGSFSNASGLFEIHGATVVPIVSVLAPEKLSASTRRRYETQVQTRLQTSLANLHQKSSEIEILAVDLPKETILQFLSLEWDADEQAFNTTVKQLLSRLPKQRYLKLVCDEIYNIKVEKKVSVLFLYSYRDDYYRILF

For this assay, the target named is GCN2 (Homo sapiens (Human), UniProt Q9P2K8). Kind of assay: GCN2 Biochemical Assay (TR-FRET, GFP-eIF2S1 substrate phosphorylation). The conditions noted are these: read-out: IC50 (GCN2 Inhibitory Activity). Here is the method:
Experimental Example 1: GCN2 Biochemical Assay
An inhibitory effect of the inventive compound on GCN2 was identified as follows.
384-well (Greiner #784075) (or 1536-well [Greiner #782075]) plates containing 60 nl (or 20 nl for 1536-well) of compound in 100% DMSO (10 concentrations serially diluted 3.16-fold) were prepared. Two copies of plates were used—one for the GCN2 assay and a second for an artifact plate. Working reagents were prepared as follows—reaction buffer: Tris pH 7.5 20 mM, MgCl2 5 mM, DTT 1 mM, Brij-35 0.005%, EGTA 0.5 mM in water; 2× enzyme solution: GCN2 (produced in-house) 1.6 nM in reaction buffer; 2× substrate solution: GFP-eIFS1 (Thermo Fisher Scientific, PV4809) 50 nM, ATP 0.2 mM, tRNA 0.4 mg/ml in reaction buffer; p-GFP-eIF2S1 (artifact) solution: p-GFP-eIFS1 (produced by incubation of 100 nM GFP-eIF2S1 in reaction buffer with 100 uM ATP and 1 nM PERK KD enzyme for 3 hr at room temperature) 2 nM in reaction buffer; 3× stop/antibody solution: p-GFP-EIF2S1 Th-Ab (Thermo Fisher Scientific, PV4816) 6 nM, AZ13933939 3 uM, BSA 3% in reaction buffer. Reagents were loaded onto a liquid dispenser (Certus FLEX, Trajan Scientific and Medical), and 3 ul (1 ul for 1536-well) of 2× enzyme solution, followed by 3 ul (1 ul for 1536-well) of 2× substrate solution was added to the plates. When small numbers of plates were processed, the enzyme solution was added first to all plates, then the valve used for the substrate solution was primed immediately prior to use. Plates were tapped or spun 1 min/1K/RT to ensure proper mixing, followed by incubation at room temperature for 70 mins, covered/stacked in the dark. For the artifact plate, 6 ul of p-GFP-eIF2S1 solution was added prior to adding the stop/antibody solution. 3 ul (1 ul for 1536-well) of 3× stop/antibody solution was added to the plates, followed by a spin-down for 1 min/1K/RT, and incubation for 2-3 hr, sealed or covered with lids in the dark at room temperature. Plates were read on a plate reader (PHERAstar FSX, BMF Labtech) at Ex 340/Em 490/Em 520 nm.
Regarding `Cc1cnc(Nc2cc(C)n(C)n2)nc1-c1c[nH]c2c(N3Cc4ccc(C5=CCNCC5)cc4C3=O)cccc12` [Example 381, 2-(3-(2-((1,5-dimethyl-1H-pyrazol-3-yl)amino)-5-methylpyrimidin-4-yl)-1H-indol-7-yl)-6-(1,2,3,6-tetrahydropyridin-4-yl)isoindolin-1-one], the IC50 was < 10 nM. To `Cc1cnc(Nc2cc(C)n(C)n2)nc1-c1c[nH]c2c(N3Cc4c(cccc4-c4ccncc4)C3=O)cccc12` [Example 387, 2-(3-(2-((1,5-dimethyl-1H-pyrazol-3-yl)amino)-5-methylpyrimidin-4-yl)-1H-indol-7-yl)-4-(pyridin-4-yl)isoindolin-1-one] belongs < 10 nM; to `Cc1cnc(Nc2cc(C)n(C)n2)nc1-c1c[nH]c2c(NC(=O)CN3CC[C@H](Oc4nc(Cl)ncc4N)C3)cccc12` [Example 96, (S)-2-(3-((5-amino-2-chloropyrimidin-4-yl)oxy)pyrrolidin-1-yl)-N-(3-(2-((1,5-dimethyl-1H-pyrazol-3-yl)amino)-5-methylpyrimidin-4-yl)-1H-indol-7-yl)acetamide], 10 to 100 nM; to `Cc1cnc(Nc2cc(C)n(C)n2)nc1-c1c[nH]c2c(NC(=O)CN3CC[C@H](Oc4nccc(C(=O)O)n4)C3)cccc12` [Example 128, (S)-2-((1-(2-((3-(2-((1,5-dimethyl-1H-pyrazol-3-yl)amino)-5-methylpyrimidin-4-yl)-1H-indol-7-yl)amino)-2-oxoethyl)pyrrolidin-3-yl)oxy)pyrimidine-4-carboxylic acid], 10 to 100 nM. For `Cc1cnc(Nc2cc(C)n(C)n2)nc1-c1c[nH]c2c(N3Cc4cc(-c5ccncc5)cnc4C3=O)cccc12` [Example 497, 6-(3-(2-((1,5-dimethyl-1H-pyrazol-3-yl)amino)-5-methylpyrimidin-4-yl)-1H-indol-7-yl)-3-(pyridin-4-yl)-5,6-dihydro-7H-pyrrolo[3,4-b]pyridin-7-one] the value was < 10 nM. To `Cc1cnc(Nc2cc(C)n(C)n2)nc1-c1c[nH]c2c(N3Cc4c(cccc4-c4ccc(C(=O)N5CCC(=O)CC5)cc4)C3=O)cccc12` [Example 412, 2-(3-(2-((1,5-dimethyl-1H-pyrazol-3-yl)amino)-5-methylpyrimidin-4-yl)-1H-indol-7-yl)-4-(4-(4-oxopiperidine-1-carbonyl)phenyl)isoindolin-1-one] belongs < 10 nM; to `Cc1cnc(Nc2cc(C)n(C)n2)nc1-c1c[nH]c2c(NC(=O)CN3CC[C@H](Oc4cc(NCc5ccccc5)ncn4)C3)cccc12` [Example 149, (S)-2-(3-((6-(benzylamino)pyrimidin-4-yl)oxy)pyrrolidin-1-yl)-N-(3-(2-((1,5-dimethyl-1H-pyrazol-3-yl)amino)-5-methylpyrimidin-4-yl)-1H-indol-7-yl)acetamide], < 10 nM; to `Cc1cnc(Nc2cc(C)n(C)n2)nc1-c1c[nH]c2c(N3Cc4c(-c5ccncc5)ccc(N(C)C)c4C3=O)cccc12` [Example 490, 2-(3-(2-((1,5-dimethyl-1H-pyrazol-3-yl)amino)-5-methylpyrimidin-4-yl)-1H-indol-7-yl)-7-(dimethylamino)-4-(pyridin-4-yl)isoindolin-1-one], 10 to 100 nM. In the case of `Cc1cnc(Nc2cc(C)n(C)n2)nc1-c1c[nH]c2c(NC(=O)CN3CC[C@H](Oc4ccnc(NCC(C)(F)F)n4)C3)cccc12` [Example 199, (S)-2-(3-((2-((2,2-difluoropropyl)amino)pyrimidin-4-yl)oxy)pyrrolidin-1-yl)-N-(3-(2-((1,5-dimethyl-1H-pyrazol-3-yl)amino)-5-methylpyrimidin-4-yl)-1H-indol-7-yl)acetamide], the 50% inhibitory concentration (IC50) was < 10 nM. To `Cc1cnc(Nc2cc(C)n(C)n2)nc1-c1c[nH]c2c(N3Cc4c(cccc4-c4cccnc4F)C3=O)cccc12` [Example 431, 2-(3-(2-((1,5-dimethyl-1H-pyrazol-3-yl)amino)-5-methylpyrimidin-4-yl)-1H-indol-7-yl)-4-(2-fluoropyridin-3-yl)isoindolin-1-one] belongs < 10 nM. For `Cc1cnc(Nc2cc(C)n(C)n2)nc1-c1c[nH]c2c(N3Cc4cccc(N(C)C)c4C3=O)cccc12` [Example 349, 2-(3-(2-((1,5-dimethyl-1H-pyrazol-3-yl)amino)-5-methylpyrimidin-4-yl)-1H-indol-7-yl)-7-(dimethylamino)isoindolin-1-one] the value was 10 to 100 nM; for `Cc1cc(C(=O)Nc2cccc3c2CN(c2cccc4c(-c5nc(Nc6cc(C)n(C)n6)ncc5C)c[nH]c24)C3=O)no1` [Example 325, N-(2-(3-(2-((1,5-dimethyl-1H-pyrazol-3-yl)amino)-5-methylpyrimidin-4-yl)-1H-indol-7-yl)-1-oxoisoindolin-4-yl)-5-methylisoxazole-3-carboxamide], 10 to 100 nM. For `Cc1cnc(Nc2cc(C)n(C)n2)nc1-c1c[nH]c2c(NC(=O)CN3CCC(Oc4ncccn4)CC3)cccc12` [Example 41, N-(3-(2-((1,5-dimethyl-1H-pyrazol-3-yl)amino)-5-methylpyrimidin-4-yl)-1H-indol-7-yl)-2-(4-(pyrimidin-2-yloxy)piperidin-1-yl)acetamide] the value was 10 to 100 nM. `Cc1cnc(Nc2cc(C)n(C)n2)nc1-c1c[nH]c2c(NC(=O)CN3CC[C@H](Oc4cnc(N(C)C)nc4)C3)cccc12` [Example 240, (S)-N-(3-(2-((1,5-dimethyl-1H-pyrazol-3-yl)amino)-5-methylpyrimidin-4-yl)-1H-indol-7-yl)-2-(3-((2-(dimethylamino)pyrimidin-5-yl)oxy)pyrrolidin-1-yl)acetamide]: the half-inhibitory concentration (IC50) was 10 to 100 nM.

As to `Cc1cnc(Nc2cc(C)n(C)n2)nc1-c1c[nH]c2c(N3Cc4c(NCC5CC5)cccc4C3=O)cccc12` [Example 353, 4-((cyclopropylmethyl)amino)-2-(3-(2-((1,5-dimethyl-1H-pyrazol-3-yl)amino)-5-methylpyrimidin-4-yl)-1H-indol-7-yl)isoindolin-1-one], the IC50 was 10 to 100 nM.

As to `Cc1cnc(Nc2cc(C)n(C)n2)nc1-c1c[nH]c2c(NC(=O)CN3CC[C@H](Oc4nc(N5CCN(C)CC5)ncc4F)C3)cccc12` [Example 233, (S)-N-(3-(2-((1,5-dimethyl-1H-pyrazol-3-yl)amino)-5-methylpyrimidin-4-yl)-1H-indol-7-yl)-2-(3-((5-fluoro-2-(4-methylpiperazin-1-yl)pyrimidin-4-yl)oxy)pyrrolidin-1-yl)acetamide], the IC50 was < 10 nM. For `Cc1cnc(Nc2cc(C)n(C)n2)nc1-c1c[nH]c2c(NC(=O)CN3CC[C@H](Oc4ccnc(NCC5CC5)n4)C3)cccc12` [Example 213, (S)-2-(3-((2-((cyclopropylmethyl)amino)pyrimidin-4-yl)oxy)pyrrolidin-1-yl)-N-(3-(2-((1,5-dimethyl-1H-pyrazol-3-yl)amino)-5-methylpyrimidin-4-yl)-1H-indol-7-yl)acetamide] the value was < 10 nM. For `Cc1cnc(Nc2cc(C)n(C)n2)nc1-c1c[nH]c2c(N3Cc4c(cccc4-c4cccc5[nH]ncc45)C3=O)cccc12` [Example 457, 2-(3-(2-((1,5-dimethyl-1H-pyrazol-3-yl)amino)-5-methylpyrimidin-4-yl)-1H-indol-7-yl)-4-(1H-indazol-4-yl)isoindolin-1-one] the value was < 10 nM; for `Cc1cnc(Nc2cc(C)n(C)n2)nc1-c1c[nH]c2c(NC(=O)CN3CC[C@H](Oc4nccc(C5=CCOCC5)n4)C3)cccc12` [Example 253, (S)-2-(3-((4-(3,6-dihydro-2H-pyran-4-yl)pyrimidin-2-yl)oxy)pyrrolidin-1-yl)-N-(3-(2-((1,5-dimethyl-1H-pyrazol-3-yl)amino)-5-methylpyrimidin-4-yl)-1H-indol-7-yl)acetamide], 10 to 100 nM; for `Cc1cnc(Nc2cc(C)n(C)n2)nc1-c1c[nH]c2c(N3Cc4c(NC(=O)c5cocn5)cccc4C3=O)cccc12` [Example 299, N-(2-(3-(2-((1,5-dimethyl-1H-pyrazol-3-yl)amino)-5-methylpyrimidin-4-yl)-1H-indol-7-yl)-1-oxoisoindolin-4-yl)oxazole-4-carboxamide], < 10 nM. Turning to `Cc1cnc(Nc2cc(C)n(C)n2)nc1-c1c[nH]c2c(NC(=O)CN3CC[C@H](Oc4ccnc(NC(C)C(F)(F)F)n4)C3)cccc12` (stereo partly drawn) [Example 201, N-(3-(2-((1,5-dimethyl-1H-pyrazol-3-yl)amino)-5-methylpyrimidin-4-yl)-1H-indol-7-yl)-2-((3S)-3-((2-((1,1,1-trifluoropropan-2-yl)amino)pyrimidin-4-yl)oxy)pyrrolidin-1-yl)acetamide], the half-maximal inhibitory concentration (IC50) lay in the range of 10 to 100 nM. As to `Cc1cnc(Nc2cc(C)n(C)n2)nc1-c1c[nH]c2c(NC(=O)CN3CC[C@H](Oc4cccc(N)c4)C3)cccc12` [Example 89], the IC50 lay in the range of 100 to 1000 nM.
